Values quoted from earlier work in publication PMC11949389 (Polish Journal of Microbiology, 2025).
≈ marks a conversion by molar mass, not a printed value. Like-named read-outs stand apart in the source and are kept apart here.

Key:
Candida dubliniensis = settings: ref Iraji et al. 2020
Candida parapsilosis = settings: ref Iraji et al. 2020, Biernasiuk et al. 2022
Candida albicans = settings: Candida albicans; ref Sharifzadeh et al. 2019; Iraji et al. 2020; Shaban et al. 2020; Stringaro et al. 2022; Biernasiuk et al. 2022
Candida krusei = settings: Candida krusei; ref Sharifzadeh et al. 2019; Iraji et al. 2020; Biernasiuk et al. 2022; Stringaro et al. 2022
Candida glabrata = settings: Candida glabrata; ref Sharifzadeh et al. 2019; Iraji et al. 2020; Biernasiuk et al. 2022; Stringaro et al. 2022
Candida tropicalis = settings: Candida tropicalis; ref Iraji et al. 2020; Stringaro et al. 2022
Klebsiella pneumoniae = settings: ref Sayout et al. 2020, de Souza et al. 2021, Kwiatkowski et al. 2022
Staphylococcus aureus = settings: for MIC: S. aureus, ref Kwiatkowski et al. (2020); for MIC/Sensitivity: Staphylococcus aureus, ref Kwiatkowski et al. 2020, Sayout et al. 2020, Sousa Silveira et al. 2020, Macêdo et al. 2022, Noumi et al. 2023, Sharma et al. 2023
Klebsiella oxytoca = settings: ref Sayout et al. 2020
[1] = test system: Mupirocin-susceptible Staphylococcus aureus; settings: ref Kwiatkowski et al. 2019
Enterobacter cloacae = settings: ref Sayout et al. 2020
Escherichia coli = settings: Escherichia coli; ref Owen et al. 2019; Sayout et al. 2020; Noumi et al. 2023
[2] = test system: Methicillin-resistant Staphylococcus aureus; settings: MRSA isolates, ref Kwiatkowski et al. (2020)
Salmonella spp. = settings: ref Sayout et al. 2020
[3] = test system: Mupirocin-resistant Staphylococcus aureus; settings: ref Kwiatkowski et al. 2019
Enterobacter aerogenes = settings: ref Sayout et al. 2020
[4] = test system: Vibrio anguillarum, and Vibrio harveyi; settings: ref Rossi et al. (2021)
Acinetobacter baumannii = settings: ref Sayout et al. 2020
Pseudomonas aeruginosa = settings: Pseudomonas aeruginosa; ref Owen et al. 2019; Sim et al. 2019; Noumi et al. 2023
[5] = in combination with penicillin G

| SMILES | MIC/Sensitivity (Candida dubliniensis) [mg/mL] | MIC/Sensitivity (Candida parapsilosis) [mg/mL] | MIC/Sensitivity (Candida albicans) [mg/mL] | MIC/Sensitivity (Candida krusei) [mg/mL] | MIC/Sensitivity (Candida glabrata) [mg/mL] | MIC/Sensitivity (Candida tropicalis) [mg/mL] | MIC/Sensitivity (Klebsiella pneumoniae) [mg/mL] | MIC/Sensitivity (Escherichia coli) [mg/mL] | MIC/Sensitivity (Acinetobacter baumannii) [mg/mL] | MIC/Sensitivity (Staphylococcus aureus) [mg/mL] | other results |
| --- | --- | --- | --- | --- | --- | --- | --- | --- | --- | --- | --- |
| CC1CC[C@H](C(C)C)[C@@H](O)C1 (single isomer, unassigned; (+)) [(+)-Menthol] | 53.1284 to 3562.728 | 53.1284 to 890.682 | 221.8892 to 7125.456 | 100.0064 to 445.341 | 26.5642 to 445.341 | 100.0064 to 445.341 | – | – | – | – | – |
| CC(C)=CCCC(C)CCO (single isomer, unassigned; (-)) [(–)-Citronellol] | 24.68 to 208.2375 | 49.36 to 416.475 | 49.36 to 1665.9 | 100.2625 to 1665.9 | 49.36 to 208.2375 | 24.68 to 100.2625 | – | – | – | – | – |
| CC12CCC(CC1)C(C)(C)O2 [1,8-Cineole] | – | – | – | – | – | – | 0.01125 (≈ 0.0729 mM) | 0.00281 (≈ 0.0182 mM) | 0.00563 (≈ 0.0365 mM) | 0.00563 to 115.1 | MIC (Staphylococcus aureus): 28,800– 57,600 μg/ml; MIC/Sensitivity (Klebsiella oxytoca): 0.00563 mg/mL (≈ 0.0365 mM); MIC/Sensitivity [1]: 307 mg/mL (≈ 1990 mM); MIC/Sensitivity (Enterobacter cloacae): 0.00563 mg/mL (≈ 0.0365 mM); FICI [2, 5]: 0.1; MIC/Sensitivity (Salmonella spp.): 0.0075 mg/mL (≈ 0.0486 mM); MIC/Sensitivity [3]: 57.56 mg/mL (≈ 373 mM); MIC/Sensitivity (Enterobacter aerogenes): 0.00281 mg/mL (≈ 0.0182 mM); activity at the tested concentrations [4]: no activity |
| CC(C)=CCC[C@@H](C)CCO [(+)-Citronellol] | 24.68 to 208.2375 | 49.36 to 416.475 | 49.36 to 1665.9 | 100.2625 to 832.95 | 49.36 to 208.2375 | 24.68 to 100.2625 | – | – | – | – | – |
| CC(C)[C@@H]1CC[C@@H](C)CC1=O [(–)-Menthone] | 894.65 to 14314.4 | 894.65 to 14314.4 | 1789.3 to 28628.8 | 3578.6 to 7157.2 | 1789.3 to 14314.4 | 1789.3 to 14314.4 | – | – | – | – | MIC/Sensitivity [1]: 27.91 mg/mL (≈ 181 mM); MIC/Sensitivity [3]: 6.98 mg/mL (≈ 45.3 mM) |
| C=C1C2CCC(C2)C1(C)C (stereo not drawn) [Camphene] | – | – | – | – | – | – | 0.03 (≈ 0.22 mM) | 0.015 (≈ 0.11 mM) | 0.02 (≈ 0.147 mM) | – | – |
| C=CC(C)(CCC=C(C)C)OC(C)=O (stereo not drawn) [Linalyl acetate] | – | – | – | – | – | – | – | – | – | 46.9 | MIC (Staphylococcus aureus): 28,200–112,600 μg/ml; MIC/Sensitivity [1]: 450.5 mg/mL; FICI ([2]; in combination with methicillin): 0.4; FICI [2, 5]: 0.6 |
| CC(C)[C@@H]1CC[C@@H](C)CC1=O [Menthone] | – | – | – | – | – | – | – | – | – | 27.9 (≈ 181 mM) | – |

The next lines start with results.

| MIC/Sensitivity (Candida dubliniensis) [mg/mL] | MIC/Sensitivity (Candida parapsilosis) [mg/mL] | MIC/Sensitivity (Candida albicans) [mg/mL] | MIC/Sensitivity (Candida krusei) [mg/mL] | MIC/Sensitivity (Candida glabrata) [mg/mL] | MIC/Sensitivity (Candida tropicalis) [mg/mL] | MIC/Sensitivity (Klebsiella pneumoniae) [mg/mL] | MIC/Sensitivity (Escherichia coli) [mg/mL] | MIC/Sensitivity (Acinetobacter baumannii) [mg/mL] | SMILES | MIC/Sensitivity (Staphylococcus aureus) [mg/mL] | other results |
| --- | --- | --- | --- | --- | --- | --- | --- | --- | --- | --- | --- |
| 858.249 to 27463.968 | 429.1245 to 1716.498 | 858.249 to 54927.936 | 858.249 to 1716.498 | 858.249 to 54927.936 | 6865.992 to 27463.968 | – | – | – | CC1=CCC2CC1C2(C)C (stereo not drawn) [(–)-α-Pinene] | – | – |
| 246.6126 to 1978.99 | 59.3697 to 1978.99 | 494.7475 to 3957.98 | 246.6126 to 3957.98 | 59.3697 to 989.495 | 246.6126 to 989.495 | 0.00508 (≈ 0.0334 mM) | 0.00763 (≈ 0.0501 mM) | 0.01017 (≈ 0.0668 mM) | CC12CCC(CC1=O)C2(C)C (stereo not drawn) [Camphor] | 0.00763 (≈ 0.0501 mM) | MIC/Sensitivity (Klebsiella oxytoca): 0.01017 mg/mL (≈ 0.0668 mM); MIC/Sensitivity (Enterobacter cloacae): 0.0061 mg/mL (≈ 0.0401 mM); MIC/Sensitivity (Pseudomonas aeruginosa): 0.0061 mg/mL (≈ 0.0401 mM); MIC/Sensitivity (Salmonella spp.): 0.0061 mg/mL (≈ 0.0401 mM); MIC/Sensitivity (Enterobacter aerogenes): 0.01525 mg/mL (≈ 0.1 mM) |
| – | – | – | – | – | – | 0.01517 (≈ 0.101 mM) | 0.01138 (≈ 0.0758 mM) | 0.00758 (≈ 0.0505 mM) | C=C(C)C1CC=C(C)C(=O)C1 (stereo not drawn) [Carvone] | 0.01138 (≈ 0.0758 mM) | MIC/Sensitivity (Klebsiella oxytoca): 0.01138 mg/mL (≈ 0.0758 mM); MIC/Sensitivity (Enterobacter cloacae): 0.0091 mg/mL (≈ 0.0606 mM); MIC/Sensitivity (Pseudomonas aeruginosa): 0.0091 mg/mL (≈ 0.0606 mM); MIC/Sensitivity (Salmonella spp.): 0.02275 mg/mL (≈ 0.151 mM); MIC/Sensitivity (Enterobacter aerogenes): 0.00569 mg/mL (≈ 0.0379 mM) |
